In US20230382909A1, “BICYCLIC COMPOUNDS” (Aligos Therapeutics, Inc., priority 2022, published 2023):

How the values were obtained:
[1] = Cell viability by CellTiter-Glo 2.0 (intracellular ATP content) in HepG2.117 cells; format: cell-based; conditions: human, CellTiter-Glo 2.0, 3 days incubation
Description: (§1) The following assay procedure describes the HBV antiviral assay, using HepG2.117 cells, which carry a stably integrated genotype D HBV genome under the control of a Tet-off promoter, and intracellular HBV DNA quantification as endpoint. Cell viability is assessed in parallel by measuring the intracellular ATP content using CellTiter-Glo 2.0 (Promega).
(§2) On day 1, medium is removed from each well, the test articles are diluted in culture medium without doxcycyline and 100 μL was added to cell culture wells (9 concentrations, 4-fold dilution). For each plate, 6 untreated (merely DMSO) wells are included. The final concentration of DMSO in the culture medium is 2%. Each plate is prepared in duplicate (one for HBV DNA extraction, one for CellTiter-Glo 2.0 measurement). The cells are incubated at 37° C. and 5% CO2 for 3 days.
(§3) On day 4, cell viability is assessed using CellTiter-Glo 2.0 and cell lysates are prepared for HBV DNA extraction and subsequent quantification by qPCR.
Using the other plates, the cell viability is quantified by CellTiter-Glo 2.0 according to the manufacturer's manual. In brief, 100 μL of reagent solution is added to the culture plates and shaken for 2′. The plates are incubated at rt for 10 min and luminescence signal is subsequently measured on a VarioSkan Lux (ThermoFisher) plate reader.
(§4) Cell viability is calculated as follows: % Cell viability=(luminescence value of test sample)/(average luminescence value of 2% DMSO control)×100%. HBV DNA inhibition was calculated as follows: 100−(HBV DNA copy number of test sample)/(average HBV DNA copy number of 2% DMSO control)×100%. No normalization to entecavir is required due to the excellent dynamic window of this assay. The CC50, EC50 and EC9o values were determined by dose-response curves fitted using non-linear regression.

[2] = test system: HBV; assay: HBV-DNA antiviral assay using HepG2.117 cells; format: cell-based, HBV genotype D; conditions: Hepatitis B virus, HepG2.117, 72 h
Description: as §1
On day 0, HepG2.117 cells (which are maintained in routine cell culture with doxycycline present in the medium at a final concentration of 1 μg/mL) are seeded in 96-well plates (white with clear bottom) at a density of 2.0×10^4 cells/well (0.1 mL/well) in medium without doxycycline to induce pgRNA transcription and subsequent formation of HBV particles. The cells are incubated at 37° C. and 5% CO2.
as §2, §3
HBV DNA Quantification by qPCR
Medium is removed from each well and 100 μL of 0.33% NP-40 in H2O was added to each well. Plates are sealed, incubated at 4° C. for 5 mins, vortexed extensively and centrifuged briefly. Next, 35 μL of lysate is added to 65 μL QuickExtract DNA Extraction Solution (Epicentre) in a PCR plate for each well. PCR plate is incubated at 65° C. for 6 mins, 98° C. for 2 mins and finally cooled to 4° C. HBV DNA is then quantified by qPCR with HBV-specific primers and probes as specified in Table 3 using the Bio-Rad SSOAdvanced Universal Probes Supermix on a CFX96 machine (Bio-Rad). The PCR cycle program consisted of 95° C. for 3 mins, followed by 40 cycles at 95° C. for 10 sec and 60° C. for 30 sec.
A DNA standard is prepared by dilution of an IDT gBlock corresponding to the amplicon with concentrations ranging from 10^2 to 10^8 copies/input (i.e., per 4 μL) and used to generate a standard curve by plotting Cq values vs. HBV DNA standard concentration. The quantity of HBV DNA in each sample is determined by interpolating from the standard curve.
as §4

With Cc1cc(C)n(-c2nc3c(c(=O)n2-c2ccc(N4CC[C@H](O)C4)nc2)C[C@@H](C)N(C(=O)c2ccc(Br)c(C(F)(F)F)c2)C3)n1 [Compound 33, (6R)-7-[4-bromo-3-(trifluoromethyl)benzoyl]-2-(3,5-dimethylpyrazol-1-yl)-3-[6-[(3S)-3-hydroxypyrrolidin-1-yl]-3-pyridyl]-6-methyl-6,8-dihydro-5H-pyrido[3,4-d]pyrimidin-4-one] the CC50 at 3 days [1] was greater than 0.5 µM and the EC50 [2] was less than 0.05 µM.
Cc1cc(C)n(-c2nc3c(c(=O)n2-c2ccc(N4CCN(C(C)C)CC4)nc2)C[C@@H](C)N(C(=O)c2ccc(Br)c(C(F)(F)F)c2)C3)n1 [Compound 34, (6R)-7-[4-bromo-3-(trifluoromethyl)benzoyl]-2-(3,5-dimethylpyrazol-1-yl)-3-[6-(4-isopropylpiperazin-1-yl)-3-pyridyl]-6-methyl-6,8-dihydro-5H-pyrido[3,4-d]pyrimidin-4-one] showed a CC50 at 3 days [1] greater than 0.5 µM and an EC50 [2] of less than 0.05 µM.
Cc1cc(C)n(-c2nc3c(c(=O)n2-c2ccc(N[C@H]4C[C@@H](O)C4)nc2)C[C@@H](C)N(C(=O)c2ccc(Br)c(C(F)(F)F)c2)C3)n1 [Compound 35, (R)-7-(4-bromo-3-(trifluoromethyl)benzoyl]-2-(3,5-dimethyl-1H-pyrazol-1-yl)-3-(6-(((1s,3S)-3-hydroxycyclobutyl)amino)pyridin-3-yl)-6-methyl-5,6,7,8-tetrahydropyrido[3,4-d]pyrimidin-4(3H)-one] showed a CC50 at 3 days [1] greater than 0.5 µM and an EC50 [2] of less than 0.05 µM.
For Cc1cc(C)n(-c2nc3c(c(=O)n2-c2ccc(N[C@H]4C[C@H](O)C4)nc2)C[C@@H](C)N(C(=O)c2ccc(Br)c(C(F)(F)F)c2)C3)n1 [Compound 36, (R)-7-(4-bromo-3-(trifluoromethyl)benzoyl)-2-(3,5-dimethyl-1H-pyrazol-1-yl)-3-(6-(((1r,3R)-3-hydroxycyclobutyl)amino)pyridin-3-yl)-6-methyl-5,6,7,8-tetrahydropyrido[3,4-d]pyrimidin-4(3H)-one], the CC50 at 3 days [1] was greater than 0.5 µM and the EC50 [2] was less than 0.05 µM.
Work on Cc1cc(C)n(-c2nc3c(c(=O)n2-c2ccc(O[C@H]4C[C@@H](O)C4)cc2)C[C@@H](C)N(C(=O)c2ccc(Br)c(C(F)(F)F)c2)C3)n1 [Compound 37, (R)-7-(4-bromo-3-(trifluoromethyl)benzoyl)-2-(3,5-dimethyl-1H-pyrazol-1-yl)-3-(4-((1s,3S)-3-hydroxycyclobutoxy)phenyl)-6-methyl-5,6,7,8-tetrahydropyrido[3,4-d]pyrimidin-4(3H)-one] yielded a CC50 at 3 days [1] greater than 0.5 µM and an EC50 [2] of less than 0.05 µM.
Molecule Cc1cc(C)n(-c2nc3c(c(=O)n2-c2ccc(O[C@H]4C[C@H](O)C4)cc2)C[C@@H](C)N(C(=O)c2ccc(Br)c(C(F)(F)F)c2)C3)n1 [Compound 38, (R)-7-(4-bromo-3-(trifluoromethyl)benzoyl)-2-(3,5-dimethyl-1H-pyrazol-1-yl)-3-(4-((1r,3R)-3-hydroxycyclobutoxy)phenyl)-6-methyl-5,6,7,8-tetrahydropyrido[3,4-d]pyrimidin-4(3H)-one] has a CC50 at 3 days [1] greater than 0.5 µM and an EC50 [2] of less than 0.05 µM.
With Cc1cc(C)n(-c2nc3c(c(=O)n2-c2ccc(O[C@H]4C[C@@H](O)C4)nc2)C[C@@H](C)N(C(=O)c2ccc(Br)c(C(F)(F)F)c2)C3)n1 [Compound 39, (R)-7-(4-bromo-3-(trifluoromethyl)benzoyl)-2-(3,5-dimethyl-1H-pyrazol-1-yl)-3-(6-((1s,3S)-3-hydroxycyclobutoxy)pyridin-3-yl)-6-methyl-5,6,7,8-tetrahydropyrido[3,4-d]pyrimidin-4(3H)-one] the CC50 at 3 days [1] was greater than 0.5 µM and the EC50 [2] was less than 0.05 µM.
With Cc1cc(C)n(-c2nc3c(c(=O)n2-c2ccc(O[C@H]4C[C@H](O)C4)nc2)C[C@@H](C)N(C(=O)c2ccc(Br)c(C(F)(F)F)c2)C3)n1 [Compound 40, (R)-7-(4-bromo-3-(trifluoromethyl)benzoyl)-2-(3,5-dimethyl-1H-pyrazol-1-yl)-3-(6-((1r,3R)-3-hydroxycyclobutoxy)pyridin-3-yl)-6-methyl-5,6,7,8-tetrahydropyrido[3,4-d]pyrimidin-4(3H)-one] the CC50 at 3 days [1] was greater than 0.5 µM and the EC50 [2] was less than 0.05 µM.
Cc1cc(C)n(-c2nc3c(c(=O)n2-c2ncc(N)cn2)C[C@@H](C)N(C(=O)c2ccc(Br)c(C(F)(F)F)c2)C3)n1 [Compound 41, (R)-3-(5-aminopyrimidin-2-yl)-7-(4-bromo-3-(trifluoromethyl)benzoyl)-2-(3,5-dimethyl-1H-pyrazol-1-yl)-6-methyl-5,6,7,8-tetrahydropyrido[3,4-d]pyrimidin-4(3H)-one] showed a CC50 at 3 days [1] greater than 0.5 µM and an EC50 [2] of less than 0.05 µM.
CNc1cnc(-n2c(-n3nc(C)cc3C)nc3c(c2=O)C[C@@H](C)N(C(=O)c2ccc(Br)c(C(F)(F)F)c2)C3)nc1 [Compound 42, (R)-7-(4-bromo-3-(trifluoromethyl)benzoyl)-2-(3,5-dimethyl-1H-pyrazol-1-yl)-6-methyl-3-(5-(methylamino)pyrimidin-2-yl)-5,6,7,8-tetrahydropyrido[3,4-d]pyrimidin-4(3H)-one] showed a CC50 at 3 days [1] greater than 0.5 µM and an EC50 [2] of less than 0.05 µM.
